Data on 13 compounds can be found in patent US20250313562A1, “Substituted tricyclic ligands for FK506-binding proteins for treatment of diseases” (Technische Universität Darmstadt, priority 2024, published 2025).

Assay [1] has as its target T1, FKBP12 (Homo sapiens, UniProt P62942). As to the kind of experiment: competitive fluorescence polarization assay, FKBP12. The class given is binding. As to the method: (§1) Affinity determination by competitive fluorescence polarization assay. The synthesized tricyclic sulfonamides were tested for their binding affinities to human FKBPs (FKBP12 and FKBP51) by the fluorescence polarization assay (Table 1).

The target in assay [2] is T2, FKBP51 (Homo sapiens, UniProt Q13451).
T2 sequence (Q13451 1-457): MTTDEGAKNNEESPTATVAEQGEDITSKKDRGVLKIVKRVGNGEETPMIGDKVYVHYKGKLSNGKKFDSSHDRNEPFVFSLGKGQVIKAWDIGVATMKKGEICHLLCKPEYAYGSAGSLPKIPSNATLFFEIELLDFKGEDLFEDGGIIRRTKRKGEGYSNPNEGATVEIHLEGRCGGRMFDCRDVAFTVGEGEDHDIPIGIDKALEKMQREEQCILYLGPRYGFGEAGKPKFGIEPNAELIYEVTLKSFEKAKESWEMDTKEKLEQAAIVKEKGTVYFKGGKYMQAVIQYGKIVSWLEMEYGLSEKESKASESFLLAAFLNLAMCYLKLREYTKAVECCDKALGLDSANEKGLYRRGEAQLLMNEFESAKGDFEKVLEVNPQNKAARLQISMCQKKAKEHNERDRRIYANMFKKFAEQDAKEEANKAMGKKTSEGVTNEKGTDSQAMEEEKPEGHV
As to the kind of experiment: competitive fluorescence polarization assay, FKBP51. Format: binding. The method, then: as §1

In assay [3] the target is T2, FKBP51. The assay is described as follows: nanoBRET assay, intracellular FKBP51 occupancy in HEK293T cells. Format: cell-based. The conditions noted are these: for IC50: intracellular occupancy; for displacement of the tracer for FKBP51 (potency in words): nanoBRET. The method, then:
(§2) For compounds 31 and 32 target engagement of FKBP12 and FKBP51 in the HEK293T cells was tested (Table 2).

Assay [4] has as its target T1, FKBP12. The assay is described as follows: nanoBRET assay, intracellular FKBP12 occupancy in HEK293T cells. Format: cell-based. Particulars: for IC50: intracellular occupancy. As to the method:
as §2

T1 sequence (P62942 whole entry): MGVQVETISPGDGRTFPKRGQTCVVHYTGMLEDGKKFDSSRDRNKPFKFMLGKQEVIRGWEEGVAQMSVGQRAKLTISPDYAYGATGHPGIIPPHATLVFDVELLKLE

`C=C[C@@H]1C2CCCC(C(=O)N3[C@H](C(N)=O)CC[C@@H]13)N2S(=O)(=O)c1cc(Cl)cc(Cl)c1` (stereo partly drawn) [Compound 21]: the Ki came to 0.48 ± 0.08 nM on FKBP12 [1] and 18 ± 3 nM on FKBP51 [2].
For `C=C[C@@H]1C2CCCC(C(=O)N3[C@H](C(=O)N4C[C@@H]5C[C@H]4CN5)CC[C@@H]13)N2S(=O)(=O)c1cc(Cl)cc(Cl)c1` [Compound 28] the same measures were 0.72 ± 0.1 nM and 52 ± 6 nM.
With `C=C[C@@H]1C2CCCC(C(=O)N3[C@H](C(=O)NC)CC[C@@H]13)N2S(=O)(=O)c1cc(Cl)cc(Cl)c1` (stereo partly drawn) [Compound 22], the inhibition constant (Ki) at FKBP12 [1] came to 0.32 ± 0.04 nM; at FKBP51 [2] it was 7.7 ± 0.9 nM.
As for `C=C[C@@H]1C2CCCC(C(=O)N3[C@H](C(=O)N4CCN(C)CC4)CC[C@@H]13)N2S(=O)(=O)c1cc(Cl)cc(Cl)c1` (stereo partly drawn) [Compound 26], the Ki worked out at 0.16 ± 0.018 nM on FKBP12 [1] and 11 ± 0.7 nM on FKBP51 [2].
As to `C=C[C@@H]1C2CCCC(C(=O)N3[C@H](C(=O)N4C[C@@H]5C[C@H]4CN5C)CC[C@@H]13)N2S(=O)(=O)c1cc(Cl)cc(Cl)c1` [Compound 27], the Ki on FKBP12 [1] stood at 0.55 ± 0.07 nM; at FKBP51 [2], 17 ± 1.7 nM.
For `C=C[C@H]1[C@@H]2CC[C@@H](c3ccccn3)N2C(=O)C2CCC[C@@H]1N2S(=O)(=O)c1cc(Cl)cc(Cl)c1` [Compound 30] the same measures were 12 ± 1.6 nM and 464 ± 79 nM.
Take `CC1CCN(C(=O)[C@@H]2CC[C@H]3[C@H](CO)C4CCCC(C(=O)N23)N4S(=O)(=O)c2cc(Cl)cc(Cl)c2)CC1` (stereo in doubt) [Compound 32]: the Ki at FKBP12 [1] amounted to 0.019 ± 0.007 nM; on FKBP51 [2], 0.72 ± 0.2 nM. Besides, the half-maximal inhibitory concentration (IC50) against FKBP51 [3] was 3.3 ± 0.3 nM; against FKBP12 [4] it was 0.49 ± 0.04 nM. On FKBP51 [3], the “displacement of the tracer for FKBP51 (potency in words)” value was “low nanomolar potency”. The “competition with the tracer for FKBP12 (potency in words)” value on FKBP12 [4] (nanoBRET) is recorded as “subnanomolar potency”.
Take `C=C[C@@H]1C2CCCC(C(=O)N3[C@H](C(=O)NCC)CC[C@@H]13)N2S(=O)(=O)c1cc(Cl)cc(Cl)c1` (stereo partly drawn) [Compound 24]: the Ki on FKBP12 [1] is 0.043 ± 0.01 nM; at FKBP51 [2], 1.1 ± 0.4 nM.
Turning to `C=C[C@@H]1C2CCCC(C(=O)N3[C@H](C(=O)N4CCC(C)CC4)CC[C@@H]13)N2S(=O)(=O)c1cc(Cl)cc(Cl)c1` (stereo partly drawn) [Compound 25], the figures for the inhibition constant (Ki) at FKBP12 [1] and at FKBP51 [2] were 0.067 ± 0.01 nM and 0.93 ± 0.2 nM, respectively.
For `CCNC(=O)[C@@H]1CC[C@H]2[C@H](CO)C3CCCC(C(=O)N12)N3S(=O)(=O)c1cc(Cl)cc(Cl)c1` (stereo in doubt) [Compound 31], the inhibition constant (Ki) on FKBP12 [1] came out at 0.013 ± 0.004 nM; at FKBP51 [2] it was 0.76 ± 0.2 nM. Besides, the half-maximal inhibitory concentration (IC50) on FKBP51 [3] was 8.5 ± 0.6 nM; on FKBP12 [4] it was 3.9 ± 0.3 nM. For the same compound, at FKBP51 [3], the “displacement of the tracer for FKBP51 (potency in words)” value is “low nanomolar potency”.
In the case of `C=C[C@@H]1C2CCCC(C(=O)N3[C@H](C(=O)N(C)C)CC[C@@H]13)N2S(=O)(=O)c1cc(Cl)cc(Cl)c1` (stereo partly drawn) [Compound 23], the Ki was found to be 2.3 ± 0.2 nM on FKBP12 [1] and 121 ± 8 nM at FKBP51 [2].
On the same counts, the results for `C=C[C@@H]1C2CCCC(C(=O)N3[C@H](C(=O)OC)CC[C@@H]13)N2S(=O)(=O)c1cc(Cl)cc(Cl)c1` (stereo partly drawn) [Compound 20] are 1 ± 0.1 nM and 76 ± 10 nM.
Take `C=C[C@@H]1C2CCCC(C(=O)N3[C@H](C(=O)O)CC[C@@H]13)N2S(=O)(=O)c1cc(Cl)cc(Cl)c1` (stereo partly drawn) [Compound 3]: the Ki on FKBP12 [1] came out at 12 ± 1.7 nM; on FKBP51 [2], 698 ± 49 nM.
